Source: ChEMBL document CHEMBL6083209, “Pyridazinone-based derivatives as anticancer agents endowed with anti-microbial activity: molecular design, synthesis, and biological investigation” (RSC Med Chem, 2024)
Converted amounts (≈) assume the structure as drawn.

Assays:
Escherichia coli = assay: Antimicrobial activity against Escherichia coli ATCC 25922 by broth microdilution method
Candida albicans = assay: Antimicrobial activity against Candida albicans ATCC 10231 by broth microdilution method
Staphylococcus aureus = assay: Antimicrobial activity against Staphylococcus aureus ATCC 29213 by broth microdilution method

Structure (SMILES)	MIC (Escherichia coli)	MIC (Candida albicans)	MIC (Staphylococcus aureus)
O=C(NC(=S)Nc1ccc(-c2ccc(=O)[nH]n2)cc1)c1ccc(Cl)c(F)c1	> 1020 µg/mL	512 µg/mL (≈ 1270 µM)	> 1020 µg/mL
O=C(NC(=S)Nc1ccc(-c2ccc(=O)[nH]n2)cc1)c1ccc([N+](=O)[O-])cc1	> 1020 µg/mL	512 µg/mL (≈ 1290 µM)	> 1020 µg/mL
O=C(NC(=S)Nc1ccc(-c2ccc(=O)[nH]n2)cc1)c1ccccc1	256 µg/mL (≈ 731 µM)	512 µg/mL (≈ 1460 µM)	256 µg/mL (≈ 731 µM)
O=c1ccc(-c2ccc(NC(=S)Nc3ccc(Cl)c(Cl)c3)cc2)n[nH]1	512 µg/mL (≈ 1310 µM)	32 µg/mL (≈ 81.8 µM)	128 µg/mL (≈ 327 µM)
O=c1ccc(-c2ccc(NS(=O)(=O)c3cccc(F)c3)cc2)n[nH]1	1020 µg/mL (≈ 2970 µM)	256 µg/mL (≈ 741 µM)	512 µg/mL (≈ 1480 µM)
O=C(NC(=S)Nc1ccc(-c2ccc(=O)[nH]n2)cc1)c1ccc(Cl)c(Cl)c1	> 1020 µg/mL	512 µg/mL (≈ 1220 µM)	> 1020 µg/mL
O=c1ccc(/C=C/c2ccc(NC(=S)Nc3ccc(Cl)c(Cl)c3)cc2)n[nH]1	512 µg/mL (≈ 1230 µM)	512 µg/mL (≈ 1230 µM)	128 µg/mL (≈ 307 µM)
CNC(C)[C@@H]1CC[C@@H](N)[C@@H](O[C@H]2[C@H](O)[C@@H](O[C@H]3OC[C@](C)(O)[C@H](NC)[C@H]3O)[C@H](N)C[C@@H]2N)O1.CN[C@@H]1[C@@H](O)[C@@H](O[C@@H]2[C@@H](O)[C@H](O[C@H]3O[C@H](C(C)N)CC[C@H]3N)[C@@H](N)C[C@H]2N)OC[C@]1(C)O.CN[C@@H]1[C@@H](O)[C@@H](O[C@@H]2[C@@H](O)[C@H](O[C@H]3O[C@H](CN)CC[C@H]3N)[C@@H](N)C[C@H]2N)OC[C@]1(C)O (stereo partly specified)	–	–	0.5 µg/mL
O=c1ccc(-c2ccc(NC(=S)Nc3cccc(Cl)c3)cc2)n[nH]1	256 µg/mL (≈ 717 µM)	16 µg/mL (≈ 44.8 µM)	128 µg/mL (≈ 359 µM)
O=C(NC(=S)Nc1ccc(/C=C/c2ccc(=O)[nH]n2)cc1)c1cccc(Br)c1	256 µg/mL (≈ 562 µM)	512 µg/mL (≈ 1120 µM)	1020 µg/mL (≈ 2250 µM)
O=c1ccc(-c2ccc(NC(=S)Nc3ccc(Br)cc3)cc2)n[nH]1	512 µg/mL (≈ 1280 µM)	256 µg/mL (≈ 638 µM)	128 µg/mL (≈ 319 µM)
O=C1CCC(c2ccc(NC(=S)NC(=O)c3ccccc3)cc2)=NN1	256 µg/mL (≈ 726 µM)	512 µg/mL (≈ 1450 µM)	512 µg/mL (≈ 1450 µM)
O=C(Nc1ccc(-c2ccc(=O)[nH]n2)cc1)Nc1cccc(Br)c1	512 µg/mL (≈ 1330 µM)	> 1020 µg/mL	128 µg/mL (≈ 332 µM)
CC(=O)N1CCN(c2ccc(OCC3COC(Cn4ccnc4)(c4ccc(Cl)cc4Cl)O3)cc2)CC1 (stereo unspecified) [KETOCONAZOLE]	–	2 µg/mL (≈ 3.76 µM)	–
O=C(NC(=S)Nc1ccc(-c2ccc(=O)[nH]n2)cc1)c1ccc(Cl)cc1	512 µg/mL (≈ 1330 µM)	512 µg/mL (≈ 1330 µM)	256 µg/mL (≈ 665 µM)
O=C1CCC(c2ccc(NC(=S)NC(=O)c3ccc(Cl)cc3)cc2)=NN1	256 µg/mL (≈ 662 µM)	512 µg/mL (≈ 1320 µM)	512 µg/mL (≈ 1320 µM)
O=c1ccc(-c2ccc(NS(=O)(=O)c3cccc(Cl)c3)cc2)n[nH]1	1020 µg/mL (≈ 2830 µM)	256 µg/mL (≈ 708 µM)	256 µg/mL (≈ 708 µM)

The next lines start with the values.

MIC (Escherichia coli)	MIC (Candida albicans)	MIC (Staphylococcus aureus)	Structure (SMILES)
1020 µg/mL (≈ 2300 µM)	512 µg/mL (≈ 1150 µM)	256 µg/mL (≈ 575 µM)	O=C(NC(=S)Nc1ccc(/C=C/c2ccc(=O)[nH]n2)cc1)c1ccc(Cl)c(Cl)c1
128 µg/mL (≈ 298 µM)	512 µg/mL (≈ 1190 µM)	128 µg/mL (≈ 298 µM)	O=C(NC(=S)Nc1ccc(-c2ccc(=O)[nH]n2)cc1)c1ccc(Br)cc1
256 µg/mL (≈ 695 µM)	512 µg/mL (≈ 1390 µM)	128 µg/mL (≈ 347 µM)	O=C(NC(=S)Nc1ccc(-c2ccc(=O)[nH]n2)cc1)c1cccc(F)c1
256 µg/mL (≈ 789 µM)	> 1020 µg/mL	256 µg/mL (≈ 789 µM)	O=C(Nc1ccc(F)cc1)Nc1ccc(-c2ccc(=O)[nH]n2)cc1
1020 µg/mL (≈ 2550 µM)	32 µg/mL (≈ 79.7 µM)	128 µg/mL (≈ 319 µM)	O=c1ccc(-c2ccc(NC(=S)Nc3cccc(Br)c3)cc2)n[nH]1
256 µg/mL (≈ 601 µM)	64 µg/mL (≈ 150 µM)	128 µg/mL (≈ 301 µM)	O=c1ccc(-c2ccc(NC(=S)Nc3c(Cl)cc(Cl)cc3Cl)cc2)n[nH]1
256 µg/mL (≈ 630 µM)	64 µg/mL (≈ 158 µM)	512 µg/mL (≈ 1260 µM)	O=c1ccc(-c2ccc(NS(=O)(=O)c3cccc(Br)c3)cc2)n[nH]1
256 µg/mL (≈ 596 µM)	512 µg/mL (≈ 1190 µM)	16 µg/mL (≈ 37.3 µM)	O=C(NC(=S)Nc1ccc(-c2ccc(=O)[nH]n2)cc1)c1cccc(Br)c1
